“And” between values parts separate entries of the source, which are not always exact repeats. Equal entries are not always repeated. Where two headings read alike, the source gives them in different places.
Experiments:
[1] = Blood exposure of UCB-9260 in the mouse models; assay type: in vivo; conditions: mouse, blood
TNF [2] = biological target: T1, TNF (Homo sapiens, UniProt P01375); assay: Thermal denaturation assay of thermal stability; assay type: binding; design: stabilise an asymmetrical form of the soluble TNF trimer
Protocol: A fluorescence probed thermal denaturation assay was performed to assess the effect of the compounds on the thermal stability of TNF (or other members of the TNF family) as a measure of compound binding. The reaction mixture contained 5 µL of 30× SYPRO® Orange dye (Invitrogen) and 5 µL of TNF (at 1 mg/mL), 37.5 μL PBS, pH 7.4 and 2.5 μL of compound (at 2 mM in DMSO). The mixture (10 µL) was dispensed in quadruplicate into a 384 PCR optical well plate and was run on a 7900HT Fast Real-Time PCR System ([…]). The PCR System heating device was set at 20 °C to 99 °C with a ramp rate of 1.1 °C min^−1; fluorescence changes in the wells were monitored by a CCD device. The fluorescence intensity increase was plotted as a function of temperature and the Tm calculated as the midpoint of this denaturation curve (determined as the point of inflection).

TNF [3] = biological target: T1, TNF; assay: TNF L929 cytotoxicity assay, human TNF; assay type: cell-based; design: stabilise an asymmetrical form of the soluble TNF trimer
Protocol: TNF (human or mouse) kills L929 cells which have been compromised by incubation with a sub-lethal concentration of actinomycin D, and this effect is inhibited with TNF biologics. Compounds were titrated in DMSO, and then pre-incubated with human or mouse TNF for 1 h. […] L929 cytotoxicity was measured by the addition of CellTitreGlo (Promega). Luminescence was measured after an incubation of at least 20 min in the dark. Percentage inhibition was calculated between unstimulated wells (maximum signal), and wells with TNF, DMSO and actinomycin D (minimum signal). The IC50 was calculated as the point of inflexion for a 4PL fitted curve. Mean IC50s are reported as a mean of at least two experiments.

T1 sequence (P01375 77-233 limits assumed): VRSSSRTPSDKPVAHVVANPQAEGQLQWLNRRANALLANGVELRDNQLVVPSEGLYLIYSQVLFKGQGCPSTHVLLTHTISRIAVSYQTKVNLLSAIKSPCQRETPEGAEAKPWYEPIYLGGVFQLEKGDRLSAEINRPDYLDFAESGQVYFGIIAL

Cc1ccc(C)c(Cn2c(C(O)c3ccncc3)nc3ccc(-c4cnn(C)c4)cc32)c1 (stereo not drawn) [UCB-9260] gave a concentration at 0.5 h ([1]; Balb/c, oral, 30 mg/kg, 30 mg/kg p.o., mouse TNF neutrophilia model, mean n=3 ± s.e.m., read-out: Blood concentration 0.5h post dose total) of 9360 nM, a concentration at 0.5 h ([1]; Balb/c, oral, 30 mg/kg, mouse TNF neutrophilia model, individual mice, 0.5h post dose, read-out: Total exposure) of 9980 nM and a concentration at 0.5 h ([1]; Balb/c, oral, 30 mg/kg, mouse TNF neutrophilia model, individual mice, read-out: Free exposure) of 254 nM. For the same molecule, the concentration at 0.5 h ([1]; Balb/c, oral, 100 mg/kg, 100 mg/kg p.o., human TNF neutrophilia model, Fu 2.4%, read-out: Blood concentration 0.5h post dose (free)) was 716 ± 93 nM, the concentration at 0.5 h ([1]; Balb/c, oral, 100 mg/kg, 100 mg/kg p.o., human TNF neutrophilia model, mean n=3 ± s.e.m., read-out: Blood concentration 0.5h post dose total) was 29800 nM and the concentration at 0.5 h ([1]; Balb/c, oral, 100 mg/kg, 100 mg/kg p.o., mouse TNF neutrophilia model, Fu 2.4%, read-out: Blood concentration 0.5h post dose (free)) was 1350 nM. It also gave a concentration at 0.5 h ([1]; Balb/c, oral, 100 mg/kg, 100 mg/kg p.o., mouse TNF neutrophilia model, mean ± s.e.m., read-out: Blood concentration 0.5h post dose total) of 56100 nM, a concentration at 0.5 h ([1]; Balb/c, oral, 100 mg/kg, human TNF neutrophilia model, individual mice, 0.5h post dose, read-out: Total exposure) of 29100 nM and a concentration at 0.5 h ([1]; Balb/c, oral, 100 mg/kg, human TNF neutrophilia model, individual mice, read-out: Free exposure) of 886 nM. For the same molecule, the concentration at 0.5 h ([1]; Balb/c, oral, 300 mg/kg, 300 mg/kg p.o., human TNF neutrophilia model, Fu 2.4%, read-out: Blood concentration 0.5h post dose (free)) was 1190 nM, the concentration at 0.5 h ([1]; Balb/c, oral, 300 mg/kg, 300 mg/kg p.o., human TNF neutrophilia model, mean n=3 ± s.e.m., read-out: Blood concentration 0.5h post dose total) was 49500 nM and the concentration at 0.5 h ([1]; Balb/c, oral, 300 mg/kg, 300 mg/kg p.o., mouse TNF neutrophilia model, Fu 2.4%, read-out: Blood concentration 0.5h post dose (free)) was 1270 nM. It also gave a concentration at 0.5 h ([1]; Balb/c, oral, 300 mg/kg, 300 mg/kg p.o., mouse TNF neutrophilia model, mean n=3 ± s.e.m., read-out: Blood concentration 0.5h post dose total) of 53000 nM, a concentration at 0.5 h ([1]; Balb/c, oral, 300 mg/kg, human TNF neutrophilia model, individual mice, 0.5h post dose, read-out: Total exposure) of 41500 nM and a concentration at 0.5 h ([1]; Balb/c, oral, 300 mg/kg, human TNF neutrophilia model, individual mice, read-out: Free exposure) of 1190 nM. It also gave a concentration at 0.5 h ([1]; Balb/c, oral, 300 mg/kg, mouse TNF neutrophilia model, individual mice, 0.5h post dose, read-out: Total exposure) of 63000 nM, a concentration at 0.5 h ([1]; Balb/c, oral, 300 mg/kg, mouse TNF neutrophilia model, individual mice, read-out: Free exposure) of 1170 nM and a concentration at 1 h ([1]; male, Balb/c, oral, 10 mg/kg, 10 mg/kg p.o., zymosan model, Fu 2.4%, read-out: Blood concentration 1h post dose (free)) of 2 ± 0.4 nM. The concentration at 1 h ([1]; male, Balb/c, oral, 10 mg/kg, 10 mg/kg p.o., zymosan model, mean n=8 ± s.e.m., read-out: Blood concentration 1h post dose (total)) was 86 ± 15 nM, the concentration at 1 h ([1]; male, Balb/c, oral, 30 mg/kg, 30 mg/kg p.o., zymosan model, Fu 2.4%, read-out: Blood concentration 1h post dose (free)) was 70 ± 7 nM and the concentration at 1 h ([1]; male, Balb/c, oral, 30 mg/kg, 30 mg/kg p.o., zymosan model, mean n=8 ± s.e.m., read-out: Blood concentration 1h post dose (total)) was 2900 nM. For the same molecule, the concentration at 1 h ([1]; male, Balb/c, oral, 30 mg/kg, zymosan model, individual mice, read-out: free exposure 1h post dose) was 46.8 nM, the concentration at 1 h ([1]; male, Balb/c, oral, 30 mg/kg, zymosan model, individual mice, read-out: total exposure 1h post dose) was 1950 nM and the concentration at 1 h ([1]; male, Balb/c, oral, 100 mg/kg, 100 mg/kg p.o., zymosan model, Fu 2.4%, read-out: Blood concentration 1h post dose (free)) was 630 ± 98 nM. The concentration at 1 h ([1]; male, Balb/c, oral, 100 mg/kg, 100 mg/kg p.o., zymosan model, mean n=8 ± s.e.m., read-out: Blood concentration 1h post dose (total)) was 26300 nM, the concentration at 1 h ([1]; male, Balb/c, oral, 300 mg/kg, 300 mg/kg p.o., zymosan model, Fu 2.4%, read-out: Blood concentration 1h post dose (free)) was 677 ± 121 nM and the concentration at 1 h ([1]; male, Balb/c, oral, 300 mg/kg, 300 mg/kg p.o., zymosan model, mean n=8 ± s.e.m., read-out: Blood concentration 1h post dose (total)) was 28200 nM. The concentration at 1 h ([1]; 150 mg/kg, 150 mg/kg B.I.D., CAIA model, mean ± s.e.m., read-out: Blood concentration total, 1h post dose) was 17300 nM, the concentration at 6 h ([1]; 150 mg/kg, 150 mg/kg B.I.D., CAIA model, mean ± s.e.m., read-out: Blood concentration total, 6h post dose) was 9970 nM and the concentration at 1 h ([1]; 150 mg/kg, 150 mg/kg B.I.D., CAIA model, read-out: Blood concentration (free), 1h post dose) was 415 ± 100 nM. It also gave a concentration at 6 h ([1]; 150 mg/kg, 150 mg/kg B.I.D., CAIA model, read-out: Blood concentration (free), 6h post dose) of 239 ± 101 nM, a concentration at 0.5 h ([1]; oral, 10 mg/kg, 10 mg/kg p.o., human TNF neutrophilia model, Fu 2.4%, read-out: Blood concentration 0.5h post dose (free)) of 20 ± 4 nM and a concentration at 0.5 h ([1]; oral, 30 mg/kg, 30 mg/kg p.o., human TNF neutrophilia model, Fu 2.4%, read-out: Blood concentration 0.5h post dose (free)) of 203 ± 59 nM. For the same molecule, the concentration at 0.5 h ([1]; oral, 30 mg/kg, 30 mg/kg p.o., human TNF neutrophilia model, mean n=3 ± s.e.m., read-out: Blood concentration 0.5h post dose total) was 8460 nM, the “Tm difference (hTNF + compound) - (hTNF+DMSO)” value (TNF [2]; DMSO 5%) was 17.3 °C and the “Tm (mean ± SD)” value (TNF [2]; hTNF + DMSO (5%) + compound, n=4 replicates) was 78.0 ± 0.7 °C. For the same molecule, the Tm1 Average (TNF [2]; inhouse hTNF 5% DMSO + compound, 4 wells) was 78 °C, the “Unreviewed - Tm1” value (TNF [2]; single wells, inhouse hTNF 5% DMSO + compound, listed as 1449260-000, in °C) was 77.1 and 77.9 and 78.1 and 78.7 and the Luminescence units (TNF [3]; compound -logM 4.6) was 12619 Luminescence units. The Luminescence units (TNF [3]; compound -logM 5.08) was 13471 Luminescence units, the Luminescence units (TNF [3]; compound -logM 5.56) was 13691 Luminescence units and the Luminescence units (TNF [3]; compound -logM 6.03) was 12384 Luminescence units. The Luminescence units (TNF [3]; compound -logM 6.51) was 8197 Luminescence units, the Luminescence units (TNF [3]; compound -logM 6.99) was 7043 Luminescence units and the Luminescence units (TNF [3]; compound -logM 7.46) was 6740 Luminescence units. It also gave a Luminescence units (TNF [3]; compound -logM 7.94) of 4803 Luminescence units, a Luminescence units (TNF [3]; compound -logM 8.42) of 3698 Luminescence units and a Luminescence units (TNF [3]; compound -logM 8.9) of 3202 Luminescence units.

Source: article PMC6923382, “Small molecules that inhibit TNF signalling by stabilising an asymmetric form of the trimer” (Nature Communications, 2019)
